The numbers were not newly measured in patent US5298246A, “Stable pharmaceutical composition and method for its production” (Kanegafuchi Kagaku Kogyo Kabushiki Kaisha, priority 1991, dated 1994), which cites them from elsewhere.

Consider `COC1=C(OC)C(=O)C(C/C=C(\C)CC/C=C(\C)CC/C=C(\C)CC/C=C(\C)CC/C=C(\C)CC/C=C(\C)CC/C=C(\C)CC/C=C(\C)CC/C=C(\C)CCC=C(C)C)=C(C)C1=O` [ubidecarenone], for which the “absorbability upon oral administration” value was “low”.
